Assay results reported in ChEMBL document CHEMBL2401710, “Design, synthesis and structure-activity relationships of zwitterionic spirocyclic compounds as potent CCR1 antagonists” (Bioorg Med Chem Lett, 2013).

Assay: Antiplatelet activity in human platelet-rich plasma assessed as inhibition of ADP-induced platelet aggregation
Assay type: functional, cell-free
Conditions: not given

In the case of `CC(C)(C)c1ccccc1Oc1ncccc1Nc1nc(C(F)(F)F)c(-c2ccccc2)s1`, the IC50 is reported as 5.2 µM.

Assay: Antiplatelet activity in human platelet-rich plasma assessed as ADP-induced platelet aggregation at 10 uM relative to control
Assay type: functional
Conditions: not given

Compared with `CC(C)(C)c1ccccc1Oc1ncccc1Nc1ncc(-c2ccccc2)s1`, `CCc1nc(Nc2cccnc2Oc2ccccc2C(C)(C)C)sc1-c1ccccc1` is lower in Activity: 87% for the first, 78% for the second.

First: CC(C)(C)c1ccccc1Oc1ncccc1Nc1nc(C(C)(C)C)c(-c2ccccc2)s1
Second: CC(C)(C)c1ccccc1Oc1ncccc1Nc1nc(C(C)(C)CC(=O)O)c(-c2ccccc2)s1
The Activity of the first is lower: 86% for the first, 89% for the second.

First: CC(C)(C)c1ccccc1Oc1ncccc1Nc1nc(C(F)(F)F)c(-c2ccccc2)s1
Second: Cc1ccccc1-c1sc(Nc2cccnc2Oc2ccccc2C(C)(C)C)nc1C(F)(F)F
The Activity of the first is higher: 61% for the first, 54% for the second.

First: CN(C)C(=O)c1nc(Nc2cccnc2Oc2ccccc2C(C)(C)C)sc1-c1ccccc1
Second: CC(C)(C)c1ccccc1Oc1ncccc1Nc1nc(C(F)(F)F)c(-c2ccccc2O)s1
The Activity of the first is higher: 100% for the first, 99% for the second.

Compared with `Cc1sc(Nc2cccnc2Oc2ccccc2C(C)(C)C)nc1C(F)(F)F`, `CC(C)(C)c1ccccc1Oc1ncccc1Nc1nc(C(F)(F)F)c(C#N)s1` is higher in Activity: 96% for the first, 101% for the second.

Going from `CCOC(=O)c1sc(Nc2cccnc2Oc2ccccc2C(C)(C)C)nc1C(F)(F)F` to `Cc1noc(-c2sc(Nc3cccnc3Oc3ccccc3C(C)(C)C)nc2C(F)(F)F)n1`, the Activity rises from 50% to 56%.

Going from `Cc1ccc(-c2sc(Nc3cccnc3Oc3ccccc3C(C)(C)C)nc2C(F)(F)F)cc1` to `COc1ccc(-c2sc(Nc3cccnc3Oc3ccccc3C(C)(C)C)nc2C(F)(F)F)cc1`, the Activity falls from 32% to 30%.

First: CC(C)(C)c1ccccc1Oc1ncccc1Nc1nc(C(F)(F)F)c(-c2ccccc2F)s1
Second: CC(C)(C)c1ccccc1Oc1ncccc1Nc1nc(C(F)(F)F)c(-c2cccc(O)c2)s1
The Activity of the first is lower: 41% for the first, 98% for the second.

First: COc1cccc(-c2sc(Nc3cccnc3Oc3ccccc3C(C)(C)C)nc2C(F)(F)F)c1
Second: CN(C)CC(C)(C)COc1cccc(-c2sc(Nc3cccnc3Oc3ccccc3C(C)(C)C)nc2C(F)(F)F)c1
The Activity of the first is higher: 41% for the first, 17% for the second.

Compared with `CC(C)(C)c1ccccc1Oc1ncccc1Nc1nc(C(F)(F)F)c(-c2ccc(OC(F)(F)F)cc2)s1`, `CC(C)(C)c1ccccc1Oc1ncccc1Nc1nc(C(F)(F)F)c(-c2ccc(C#N)cc2)s1` is lower in Activity: 85% for the first, 79% for the second.

Assay: Half life in rat at 5 mg/kg, iv
Assay type: ADME, organism-based
Parameters: dose 5 mg/kg, route intravenous
Conditions: in vivo

With `CN(C)CC(C)(C)COc1cccc(-c2sc(Nc3cccnc3Oc3ccccc3C(C)(C)C)nc2C(F)(F)F)c1` the half-life was 2.1 h.
